Reference: US4490370A, “Naphthylglycyl cephalosporin derivatives” (priority 1983, dated 1984)
Values after ≈ are worked out from the molar mass of the structure shown. Structures can show the parent of a compound that is named as a salt. Where two headings read alike, the source gives them in different places.

Experiments:
Format in all cases: cell-based
Staph. aureus = experiment: Agar dilution MIC, Staph. aureus
Excerpt: (§1) The following Tables present typical minimum inhibitory concentrations (MIC's) in μg/ml for the compounds when evaluated against the indicated microorganisms.

Staph. epi = experiment: Agar dilution MIC, Staph. epi
Excerpt: as §1

Strep. A = experiment: Agar dilution MIC, Strep. A; conditions: Table I, strain C203
Excerpt: (§2) A typical and preferred compound provided by this invention is 7-(2-naphthylglycylamido)-3-methyl-3-cephem-4-carboxylic acid, the compound of Example 3. The antibacterial activity of this compound and several others of the invention has been determined in standard in vitro agar dilution assays against a variety of gram positive microorganisms. The following Tables present typical minimum inhibitory concentrations (MIC's) in μg/ml for the compounds when evaluated against the indicated microorganisms. MIC's for several known compounds are also presented for comparison.

H. influ. = experiment: Agar dilution MIC, H. influenza
Excerpt: as §1

Klebsiella = experiment: Agar dilution MIC, Klebsiella; conditions: Table I, strain X26
Excerpt: as §2

Strep. PN = experiment: Agar dilution MIC, Strep. PN; conditions: Table I, strain PARK
Excerpt: as §1

[1] = Staphylococcus aureus, Table I, strain V41, read-out: MIC
[2] = Table I, strain 222, read-out: MIC
[3] = Table I, strain EPI1, read-out: MIC
[4] = Table I, strain BRUN, read-out: MIC

N[C@H](C(=O)N[C@@H]1C(=O)N2C(C(=O)O)=C(Cl)CS[C@H]12)c1ccc2ccccc2c1 [Ex. 5B, L-7-(2-naphthylglycylamido)-3-chloro-3-cephem-4-carboxylic acid]
MIC (Staph. aureus; Table I, strain X1.1): 8 µg/mL (≈ 19.1 µM) | MIC (Staph. epi; Table I, strain 222): 4 µg/mL (≈ 9.57 µM) | MIC (Staph. epi; Table I, strain EPI1): 32 µg/mL (≈ 76.6 µM) | MIC (Strep. A): 4 µg/mL (≈ 9.57 µM) | MIC (H. influ.; Table I, strain 251): 16 µg/mL (≈ 38.3 µM) | MIC (Klebsiella): 2 µg/mL (≈ 4.79 µM)

CC1=C(C(=O)O)N2C(=O)C(NC(=O)[C@H](N)c3ccc4cc(O)ccc4c3)C2SC1 (stereo partly drawn) [Example 11, D-7-(6-hydroxy-2-naphthylglycyl-amido)-3-methyl-3-cephem-4-carboxylic acid]
MIC (Staph. aureus; [1]): 8 µg/mL (≈ 19.3 µM) | MIC (Staph. aureus; Staphylococcus aureus, Table I, strain X1.1, read-out: MIC): 0.5 µg/mL (≈ 1.21 µM) | MIC (Staph. aureus; Staphylococcus aureus, Table I, strain X400, read-out: MIC): 32 µg/mL (≈ 77.4 µM) | MIC (Staph. aureus; Staphylococcus aureus, Table II, strain S224, read-out: MIC): 0.5 µg/mL (≈ 1.21 µM) | MIC (Staph. aureus; Staphylococcus aureus, Table II, strain S225, read-out: MIC): 0.5 µg/mL (≈ 1.21 µM) | MIC (Staph. aureus; Staphylococcus aureus, Table II, strain S226, read-out: MIC): 1 µg/mL (≈ 2.42 µM) | MIC (Staph. aureus; Staphylococcus aureus, Table II, strain S227, read-out: MIC): 0.5 µg/mL (≈ 1.21 µM) | MIC (Staph. aureus; Staphylococcus aureus, Table II, strain S228, read-out: MIC): 0.5 µg/mL (≈ 1.21 µM) | MIC (Staph. aureus; Staphylococcus aureus, Table II, strain S229, read-out: MIC): 1 µg/mL (≈ 2.42 µM) | MIC (Staph. aureus; Staphylococcus aureus, Table II, strain S230, read-out: MIC): 0.5 µg/mL (≈ 1.21 µM) | MIC (Staph. aureus; Staphylococcus aureus, Table II, strain S231, read-out: MIC): 0.5 µg/mL (≈ 1.21 µM) | MIC (Staph. aureus; Staphylococcus aureus, Table II, strain S234, read-out: MIC): 1 µg/mL (≈ 2.42 µM) | MIC (Staph. aureus; Staphylococcus aureus, Table II, strain S237, read-out: MIC): 1 µg/mL (≈ 2.42 µM) | MIC (Staph. aureus; Staphylococcus aureus, Table II, strain S238, read-out: MIC): 1 µg/mL (≈ 2.42 µM) | MIC (Staph. aureus; Staphylococcus aureus, Table II, strain S239, read-out: MIC): 1 µg/mL (≈ 2.42 µM) | MIC (Staph. epi; [2]): 1 µg/mL (≈ 2.42 µM) | MIC (Staph. epi; [3]): 4 µg/mL (≈ 9.67 µM) | MIC (Staph. epi; Table II expanded spectrum, strain EPI1, read-out: MIC): 4 µg/mL (≈ 9.67 µM) | MIC (Staph. epi; Table II, strain 219, read-out: MIC): 0.5 µg/mL (≈ 1.21 µM) | MIC (Staph. epi; Table II, strain 269, read-out: MIC): 2 µg/mL (≈ 4.84 µM) | MIC (Staph. epi; Table II, strain 270, read-out: MIC): 4 µg/mL (≈ 9.67 µM) | MIC (Staph. epi; Table II, strain 285, read-out: MIC): 2 µg/mL (≈ 4.84 µM) | MIC (Staph. epi; Table II, strain 286, read-out: MIC): 1 µg/mL (≈ 2.42 µM) | MIC (Strep. A; read-out: MIC): 0.125 µg/mL (≈ 0.302 µM) | MIC (Strep. PN; read-out: MIC): 0.25 µg/mL (≈ 0.605 µM) | MIC (H. influ.; [4]): 8 µg/mL (≈ 19.3 µM) | MIC (H. influ.; Table II, strain M366, read-out: MIC): > 64 µg/mL | MIC (H. influ.; Table II, strain R465, read-out: MIC): 16 µg/mL (≈ 38.7 µM) | MIC (H. influ.; Table II, strain STEL, read-out: MIC): > 64 µg/mL | MIC (Klebsiella; Klebsiella, read-out: MIC): 4 µg/mL (≈ 9.67 µM)

N[C@@H](C(=O)NC1C(=O)N2C(C(=O)O)=CCSC12)c1ccc2ccccc2c1 (stereo partly drawn) [Example 12, D-7-(2-Naphthylglycylamido)-3-cephem-4-carboxylic acid trifluoroacetate]
MIC (Staph. aureus; Staphylococcus aureus): 4 µg/mL | MIC (Staph. aureus; Staphylococcus aureus, Table I, strain S13E): 64 µg/mL | MIC (Staph. aureus; [1]): 64 µg/mL | MIC (Staph. epi; [2]): 4 µg/mL | MIC (Staph. epi; [3]): 32 µg/mL | MIC (Strep. A; read-out: MIC): 0.5 µg/mL | MIC (Strep. PN; read-out: MIC): 1 µg/mL | MIC (H. influ.; Table I, strain 251, read-out: MIC): 16 µg/mL | MIC (H. influ.; [4]): 64 µg/mL | MIC (Klebsiella; Klebsiella, read-out: MIC): 16 µg/mL

N[C@@H](C(=O)N[C@@H]1C(=O)N2C(C(=O)O)=C(Cl)CS[C@H]12)c1ccc2ccccc2c1 [Ex. 5A, D-7-(2-naphthylglycylamido)-3-chloro-3-cephem-4-carboxylic acid]
MIC (Staph. aureus; Table I, strain S13E): 16 µg/mL (≈ 38.3 µM) | MIC (Staph. aureus; Table I, strain V41): 16 µg/mL (≈ 38.3 µM) | MIC (Staph. epi; Table I, strain EPI1): 2 µg/mL (≈ 4.79 µM) | MIC (Strep. A): 0.125 µg/mL (≈ 0.299 µM) | MIC (Strep. PN): 0.125 µg/mL (≈ 0.299 µM) | MIC (H. influ.; Table I, strain 251): 2 µg/mL (≈ 4.79 µM) | MIC (H. influ.; Table I, strain BRUN): 4 µg/mL (≈ 9.57 µM) | MIC (Klebsiella): 2 µg/mL (≈ 4.79 µM)
